Experimental data: patent US4857324A, “Exogenously acidified antacid compositions having cytoprotective properties” (priority 1987, dated 1989)

Legend:
[1] = test system: ethanol induced gastric ulcers in the rat; experiment: ethanol-induced lesion assay (cytoprotective activity) in rats; type: in vivo, rat (male Sprague-Dawley); conditions: for % INHIBITION: Table 4
Source text: The cytoprotective activity of a compound may be observed in both animals and man by noting the increase resistance of the gastrointestinal mucosa to the noxious effects of strong irritants, for example, the ulcerogenic effects of aspirin or indomethacin.
The ethanol-induced lesion assay is a standard test for cytoprotective activity and is described in an article by A. Robert et al entitled "Cytoprotection By Prostaglandins in Rats" published in Gastroenterology 77:433-443, 1979.
The ethanol-induced lesion assay was used to measure the cytoprotective ability of commercial antacids. Male Sprague-Dawley rats (supplier, Charles River, Willmington, Mass.) weighing between 120-150 g were used. The rats were fasted for 24 hr prior to use (water ad libitum). Before dosing, the animals were placed two per cage and denied water.
Animals were orally, i.e. intragastrically pretreated, one hour before ethanol administration with either RIOPAN Extra Strength suspension, MAALOX suspension, PGE2, or vehicle. One hour after ethanol administration, the rats were sacrificed by CO2 asphyxiation. The stomachs were removed and kept moist with saline until the lesions were scored. Ulcers were scored with the investigator unaware of the treatment groups (single blind). Ulcers were graded according to the following scale: […]
GRADE (Approximate length of lesion)
Absolute ethanol was given orally, 1 ml/rat. RIOPAN Extra Strength, 1080 mg magaldrate per 5 ml (lot 3RM4), and MAALOX, 200 mg Mg(OH)2 +225 mg Al(OH)3 per 5 ml (lot 64700), were administered orally as commercially available suspensions. The dose volume administered was based on the ED50 (ml of antacid/kg, see Table 1).
The dose volume of acidified antacid was adjusted for the volume of 6 N HCl added to the suspension. PGE2 was stored in 100% ethanol and diluted with normal saline before use.
Magaldrate of Example 1 and MAALOX of Example 2 were prepared as described above. The dose volume of nonbuffering antacid was adjusted for the volume of 6 N HCl added to the suspension during preparation. PGE2 was stored in 100% ethanol and diluted with normal saline before use.
The mean ulcer score of each treatment group was compared to the control group and expressed as the percent inhibition of ulcer formation.
The cytoprotective ED50 before and after acidification for the magaldrate of Example 1, referred to in this example as RIOPAN Extra Strength, and for MAALOX of Example 2 was calculated by standard regression analysis of the dose-response data. Confidence limits of 95% were calculated using the statistical differential method.
The spray dried powders of Examples 8 through 15 were tested for cytoprotective activity in the ethanol-induced lesion assay as described in Example 7.
The respective powders were admixed with sufficient water to form a liquid and the animals were dosed 400 milligrams of powder per kilo of body weight […]. in the test.
The experiments were performed using ten rats for each test composition and using the in vivo test procedure described in Example 7. The dose of acidified Extra Strength RIOPAN was selected for the test at 0.46 milliliters per kilogram of rat body weight. Approximately 4.6 times this amount (8 times on a mg/kg basis) was selected for the dose of commercial Extra Strength RIOPAN. Approximately 30 times this amount was selected for each dose of the Wenger et al solutions.
Two experiments were performed using ten rats for each test composition and again using the in vivo test procedure described in Example 7. In these experiments the dose in milliliters per kilogram of rat body weight was equal for each test composition.

ethanol induced ulcer = conditions: Robert et al 1984; cited from earlier work
gastric mucosa = conditions: literature; cited from earlier work
gastric acid secretion = conditions: in vivo; cited from earlier work
[2] = per 5 ml of suspension or liquid; cited from earlier work

SMILES: [Cl][Al]([Cl])[Cl] [aluminum chloride]
- cytoprotective activity (in words) ([1]; ethanol-induced gastric lesion model): does not exhibit such activity

SMILES: CC(C)[N+](C)(CCOC(=O)C1c2ccccc2Oc2ccccc21)C(C)C [propantheline bromide]
- protection in the ethanol induced ulcer model (ethanol induced ulcer): do not protect in this model

SMILES: CCCCC[C@H](O)/C=C/[C@H]1[C@H](O)CC(=O)[C@@H]1C/C=C\CCCC(=O)O [PGE2]
- % INHIBITION ([1]; dose 25 g/kg p.o. (so in the source)): 39%
- % INHIBITION ([1]; dose 50 g/kg p.o. (so in the source)): 63%
- % INHIBITION ([1]; dose 75 g/kg p.o. (so in the source)): 80%
- effect on ethanol induced ulcers (in words) ([1]; rat, p.o.): inhibited ethanol induced ulcer formation
- potency of PGE2 relative to acidified RIOPAN Extra Strength or acidified MAALOX ([1]; rat, p.o.): approximately 1000 times

SMILES: CN/C(=N/CCSCc1nc[nH]c1C)NC#N [cimetidine]
- protection in the ethanol induced ulcer model (ethanol induced ulcer): do not protect in this model

SMILES: [OH][Al]([OH])[OH] [Al(OH)3, aluminum hydroxide]
- gastric cytoprotection (in words) (gastric mucosa): have cytoprotective properties

SMILES: CCCCC[C@H](O)/C=C/[C@@H]1[C@@H](C/C=C\CCCC(=O)O)[C@@H](O)C[C@H]1O [prostaglandin F2]
- gastric cytoprotection (in words) (gastric mucosa): does induce gastric cytoprotection
- inhibition of gastric acid secretion (gastric acid secretion): does not inhibit gastric acid secretion

SMILES: O.O=S(=O)([O-])[O-].O=S(=O)([O-])[O-].[Al+3].[Al+3].[Al+3].[Al+3].[Al+3].[Mg+2].[Mg+2].[Mg+2].[Mg+2].[Mg+2].[Mg+2].[Mg+2].[Mg+2].[Mg+2].[Mg+2].[OH-].[OH-].[OH-].[OH-].[OH-].[OH-].[OH-].[OH-].[OH-].[OH-].[OH-].[OH-].[OH-].[OH-].[OH-].[OH-].[OH-].[OH-].[OH-].[OH-].[OH-].[OH-].[OH-].[OH-].[OH-].[OH-].[OH-].[OH-].[OH-].[OH-].[OH-] [magaldrate, aluminum magnesium hydroxide sulfate]
- effect on ethanol induced ulcers (in words) ([1]; rat, p.o.): inhibit ethanol induced ulcers in rats
- acid neutralized / acid neutralization capacity (ANC) [2]: 13.5 to 15 mEq
